Source: patent EP4623906A1, “OPHTHALMIC FORMULATION COMPRISING PYRIDINE PHENYL COMPOUND, PREPARATION METHOD THEREFOR, AND USE THEREOF” (Zhuhai United Laboratories Co., Ltd., priority 2022, dated 2024)

What was measured:
Assay type in all cases: physicochemical
[1] = Solubilization trials of compound of formula (IX) with different solubilizing agents, grinding and heating (Examples 1-11)
Method: Examples 1-11 were prepared according to the specific processes in Table 1. […]

[2] = Preliminary stability of eye drops with antimicrobial preservatives, in the dark at 25°C and 40°C for 5 days (Examples 52, 55, 56); details: Compound of Formula (IX), 0 h
Method: According to the prescription ratio in Table 11, the active compound of formula (IX) was weighed, and dispersed in isopropanol with stirring until the solution was clear. HP-β-CD was slowly added under stirring, until the solution was clear. Purified water in the prescribed ratio was slowly added to the isopropanol solution under stirring, and stirred for 1 hour to obtain a clear solution. The above solution was freeze-dried in a vacuum freeze dryer to obtain a loose white freeze-dried powder. Freeze-dried powder of the inclusion compound was dissolved in a re-dissolving medium, and successively filtered through 0.45 µm and 0.22 µm mixed filter membrane to obtain active compound eye drops, and filled in a sample packaging of 2 mL per bottle, to obtain eye drops.
For multi-dose packaged eye drops, the addition of antimicrobial preservatives is needed to avoid microbial contamination during use. The effects of two antimicrobial preservatives, benzalkonium chloride and chlorhexidine acetate, on prescription stability were investigated through Examples 52, 55, and 56. The preliminary stability of eye drops from Example 52, Example 55, and Example 56 was investigated by placing them in the dark at 25°C and 40°C for 5 days.

[3] = Preliminary compatibility of packaging materials, in the dark at 25°C (Examples 52-54); parameters: unit not given here; details: Compound of Formula (IX) itself
Method: Examples 53 and 54 were packaged in low-density polyethylene (PE) pharmaceutical eye drops bottles, brown polyester (PET) pharmaceutical eye drops bottles and ampoules, respectively. They were placed in the dark at 25°C to investigate the preliminary compatibility of the packaging materials.

## CC(C)(O)c1ccc(-c2cnc(C(C)(C)O)c(N)c2)cc1N [Compound of Formula (IX)]
[1]
  Solubility in water: insoluble or almost insoluble
[2]
  Peak at retention time 19.6 min, relative retention time 1.00: 93.14
  Peak at retention time 20.2 min, relative retention time 1.03: 0.16
  Peak at retention time 21.1 min, relative retention time 1.08: 0.39
  Peak at retention time 21.5 min, relative retention time 1.10: 0.41
  Peak at retention time 23.8 min, relative retention time 1.21: 0.11
  Peak at retention time 24.0 min, relative retention time 1.22: 2.41
  Peak at retention time 24.5 min, relative retention time 1.25: 0.50
  Peak at retention time 24.7 min, relative retention time 1.26: 0.25
  Peak at retention time 24.8 min, relative retention time 1.27: 0.12
  Peak at retention time 25.6 min, relative retention time 1.31: 0.09
  Peak at retention time 26.0 min, relative retention time 1.33: 0.15
  Peak at retention time 26.2 min, relative retention time 1.34: 2.15
  Peak at retention time 28.3 min, relative retention time 1.44: 0.13
[3]
  Impurity RRT 0.44: 0.06
  Impurity RRT 1.17: 0.05
  Impurity RRT 1.29: 0.20
  Impurity RRT 1.34: 0.10
  Impurity RRT 1.55: 0.07
  Impurity RRT 1.59: 0.02
  Impurity RRT 1.66: 0.04
  Impurity RRT 1.75: 0.04
  Impurity RRT 1.81: 0.03
  Impurity RRT 1.84: 0.25
  Impurity RRT 1.89: 0.04
  Impurity RRT 1.97: 0.03
  Impurity RRT 2.10: 0.09
  Impurity RRT 2.19: 0.21
  Impurity RRT 2.23: 0.02
  Impurity RRT 2.27: 0.03
  Total impurity: 1.03
